| melting point [°C] | SMILES |
| --- | --- |
| 108 | CC(C)CC1=C/C(=C/c2ccc(-c3ccc(Br)cc3)o2)C(=O)O1 |
| 154 | CC1=NN(c2ccccc2)C(=O)/C1=C/c1ccccc1O |
| 191 | CC1(C)CC(=O)c2c(cc3c(c2-c2ccccc2)-c2ccccc2OC3)C1 |
| 124 | CCOC(=O)/C(C#N)=C/c1ccc(-c2ccccc2Br)o1 |
| 108 | CN(C)CCOc1ccc(/C(=C(\CCCl)c2ccccc2)c2ccccc2)cc1 |
| 154 | COC(=O)/C=C(/C(=O)OC)N(Nc1ccccc1N=Nc1ccccc1)c1ccccc1 |
| 145 | COc1ccc(C(=O)/C=C/c2ccc(-c3ccccc3OC)o2)cc1OC |
| 120 | COc1ccc(C(=O)/C=C/c2ccc(-c3ccccc3[N+](=O)[O-])o2)cc1OC |
| 146 | COc1ccc(N/N=C(\C#N)c2nc(-c3ccc(C)cc3)cs2)cc1 |
| 99 | COc1ccccc1-c1ccc(/C=C/C(=O)c2ccccc2)o1 |
| 159 | COc1ccccc1/C=C(/C#N)c1nc2ccccc2s1 |
| 133 | Cc1ccc(-c2csc(/C(C#N)=N/Nc3cccc(C)c3)n2)cc1 |
| 163 | Cc1ccc(/C=C(\Oc2ccccc2)c2nc3ccccc3s2)cc1 |
| 123 | Cc1ccc(C(=O)/C=C/c2ccc(-c3ccccc3)o2)o1 |
| 185 | O=C1CCCc2cc3c(c(-c4ccccc4)c21)-c1cc(Cl)ccc1OC3 |
| 119 | COc1ccccc1NC(=O)c1cnc(C(C)(C)C)c(Cl)n1 |
| 119 | CC(=O)C=Cc1oc2ccc(Cl)cc2c1-c1ccc(C)o1 |

| melting point [°C] | SMILES |
| --- | --- |
| 166 | Cn1c(/C(C#N)=N/Nc2cccc(Cl)c2)nc2ccccc21 |
| 134 | N#C/C(=N/Nc1cc(Cl)ccc1Cl)c1nc(-c2ccccc2)cs1 |
| 159 | NC(=O)/C(=N\Nc1ccc(F)cc1)c1nc2ccccc2s1 |
| 161 | NC(=O)/C(=N\Nc1ccc(O)cc1)c1nc2ccccc2s1 |
| 125 | COC(=O)c1cc(C)n(CN(Cn2nc(C(=O)OC)cc2C)c2ccccc2)n1 |
| 254 | N=C1c2ccccc2C(=O)N1c1n[nH]c2ncccc12 |
| 210 | CC(=O)Nc1ccc(C2=NN(c3ccccc3)C(=O)C2)cc1 |
| 122 | Cc1ccccc1C1(C#N)Cc2ccccc2C(=O)O1 (stereo unspecified) |
| 143 | CC1(C)OC(=O)C(=Cc2ccc(-c3ccccc3)o2)C(=O)O1 |
| 145 | O=C1OC(c2ccccc2)=N/C1=C/c1ccc(-c2cccc([N+](=O)[O-])c2)o1 |
| 83.8 | Cc1ccc(Sc2ccccc2NS(=O)(=O)c2ccc(C)cc2)cc1 |
| 175 | O=[N+]([O-])c1cc([N+](=O)[O-])c(C(Br)=Cc2ccccc2)cc1/C=C\c1ccccc1 |
| 159 | CC1(C)c2ccccc2N(Cc2ccccc2)C12C=Cc1cc([N+](=O)[O-])ccc1O2 (stereo unspecified) |
| 165 | COC(=O)C1C(c2ccccc2)C(C#N)=C(C(SC)SC)C1(O)c1ccccc1 (stereo unspecified) |
| 166 | c1ccc(C/C(=N\Nc2ccccc2)c2ccc3ccccc3c2)cc1 |
| 116 | COc1ccc(-c2csc(C(C#N)=Cc3ccco3)n2)cc1 |

More lines, now with the values behind:

| SMILES | melting point [°C] |
| --- | --- |
| COC1(CBr)OC(COC(=O)c2ccc(C)cc2)C(OC(=O)c2ccc(C)cc2)C1OC(=O)c1ccc(C)cc1 (stereo unspecified) | 149 |
| CN1C(=O)C(=NNc2c(Br)cc(Br)cc2Br)C(=O)N(C)C1=O | 166 |
| Cc1c(C2(c3cc(Br)c(O)c(Br)c3C)OS(=O)(=O)c3ccccc32)cc(Br)c(O)c1Br | 225 |
| CCOC(=O)[C@@H]1CC[C@H](C(C)=O)[C@@H]1NC(=O)OC(C)(C)C | 110 |
| CCCCCCCCOc1cc(N(NC(=O)OC(C)(C)C)C(=O)OC(C)(C)C)cc(OCCCCCCCC)c1OCCCCCCCC | 73.5 |
| CCCCCCCCCCOc1cc(N(NC(=O)OC(C)(C)C)C(=O)OC(C)(C)C)cc(OCCCCCCCCCC)c1OCCCCCCCCCC | 56 |
| CCCCCCCCSc1cc(N(NC(=O)OC(C)(C)C)C(=O)OC(C)(C)C)cc(SCCCCCCCC)c1SCCCCCCCC | 51.5 |
| CCCCCCCCCCSc1cc(N(NC(=O)OC(C)(C)C)C(=O)OC(C)(C)C)cc(SCCCCCCCCCC)c1SCCCCCCCCCC | 50.5 |
| CCCCCCCCCCCCSc1cc(N(NC(=O)OC(C)(C)C)C(=O)OC(C)(C)C)cc(SCCCCCCCCCCCC)c1SCCCCCCCCCCCC | 50 |
| CCCCCCCCOc1ccc(N(NC(=O)OC(C)(C)C)C(=O)OC(C)(C)C)cc1OCCCCCCCC | 56 |
| CC1(C)C(O)[C@H](Cl)[C@@H]2CC[C@H]1O2 (stereo partly specified) | 72 |
| CC12CCC(/C(=C/N(Cl)c3ccccc3)C1=O)C2(C)C (stereo unspecified) | 103 |
| CC1(C)CC(=O)c2c(cc3c(c2[Si](C)(C)C)-c2ccccc2OC3)C1 | 143 |
| CC[C@H]1OC(=O)[C@H](C)[C@@H](O[C@H]2C[C@@](C)(OC)[C@@H](O)[C@H](C)O2)[C@H](C)[C@@H](O[C@@H]2O[C@H](C)C[C@H](N(C)C)[C@H]2O)[C@](C)(O)C[C@@H](C)CN(C)[C@H](C)[C@@H](O)[C@]1(C)O | 114 |
| COC1=C(OC)C(=O)C(C/C=C(\C)CC/C=C(\C)CC/C=C(\C)CC/C=C(\C)CC/C=C(\C)CC/C=C(\C)CC/C=C(\C)CC/C=C(\C)CC/C=C(\C)CCC=C(C)C)=C(C)C1=O | 49 |
| CON(/C=C1\C(=O)C2(C)CCC1C2(C)C)c1ccccc1 (stereo unspecified) | 76 |
| COc1ccc(/N=N/c2c(N)nn3c(C(F)(F)F)cc(C)nc23)cc1 | 159 |
| COc1ccccc1N/N=C1\C(=O)N(CN2CCCCC2)N=C1C | 149 |
| C[C@]12C/C(=C/O)C(=O)C[C@@H]1CC[C@@H]1[C@@H]2CC[C@@]2(C)[C@H]1CC[C@]2(C)O | 179 |
| ClC1=C(Cl)[C@]2(Cl)C3C(Cl)C=CC3[C@@]1(Cl)C2(Cl)Cl (stereo partly specified) | 95.5 |
| ClC1=C(Cl)[C@]2(Cl)[C@H]3[C@H]([C@@H]4C=C[C@H]3C4)[C@@]1(Cl)C2(Cl)Cl | 104 |

| SMILES | melting point [°C] |
| --- | --- |
| N=C(NCCCCCCNC(=N)NC(=N)Nc1ccc(Cl)cc1)NC(=N)Nc1ccc(Cl)cc1 | 134 |
| CCC(C)NC(=O)C(C(F)(F)F)C(F)(F)F (stereo unspecified) | 112 |
| NCCNCCNCCNCCN | -40 |
| COc1ccc(N=C(CNc2ccc(OC)cc2)Nc2ccc(OC)cc2)cc1 | 159 |
| O/N=C/C1=C(/C=C/c2ccccc2)CCC1 | 163 |
| C=C1N(C(C)=O)c2ccccc2C1(C)C(=O)OC (stereo unspecified) | 60 |
| CC(=O)NC1C2CCC(C)(C1NC(C)=O)C2(C)C (stereo unspecified) | 250 |
| CC(=O)CCc1oc2ccc(NC(C)=O)cc2c1-c1ccc(C)o1 | 132 |
| CC1(C)OC(C)(C(O)(Cc2ccccc2)Cc2ccccc2)CCC1C(=O)O (stereo unspecified) | 138 |
| CC1(CO)NC(C(=O)O)CC2c3ccccc3NC21 (stereo unspecified) | 260 |
| O=C(O)COCCNC(=O)C12CC3CC(CC(C3)C1)C2 | 122 |
| O=C(O)[C@@H]1C[C@@H]2C[C@H]1[C@@H](O)C2 | 161 |
| COC(=O)[C@]1(C(=O)O)[C@@H]2CCC[C@@H]21 | 137 |
| O=C(O)c1ccccc1-c1c2cc(Br)c(=O)c(Br)c-2oc2c(Br)c(O)c(Br)cc12 | 300 |
| COC(=O)CC(C)CCC1C(C)(O)CCC2C(C)(C)CCCC21C (stereo unspecified) | 70 |
| COC(=O)c1ccc2c(c1)CC1(CCC(c3ccc(C(C)(C)C)cc3)CC1)C2 (stereo unspecified) | 117 |
| CC(=O)OC1CCC2(C)C(C1)CC1(OCCO1)C1C2CCC2(C)C1CCC21OCCO1 (stereo unspecified) | 208 |
| CCCC1(O)CCC2C3CCC4CC(OC(C)=O)CCC4(C)C3CCC21C (stereo unspecified) | 121 |
| CC1(C(=O)OC2OC(CO)C(O)C(O)C2O)CCCC2(C)C3CCC4CC3(CCC12)CC4(CO)OC1OC(CO)C(O)C(O)C1O (stereo unspecified) | 198 |
| CC(=O)OCC1OC(C(N)=O)C(OC(C)=O)C(OC(C)=O)C1OC(C)=O (stereo unspecified) | 129 |
| CC(=O)OCC1OC(OC2C(COC(C)=O)OC(OC(C)=O)C(OC(C)=O)C2OC(C)=O)C(OC(C)=O)C(OC(C)=O)C1OC(C)=O (stereo unspecified) | 138 |

| SMILES | melting point [°C] |
| --- | --- |
| CCCOC(=O)C1=C(C)NC(C)=C(C(=O)OCCC)C1c1cccc(OC)c1O | 167 |
| COc1cc(O)c2c(=O)c(OC3OC(CO)C(O)C(O)C3OC3OC(C)C(O)C(O)C3O)c(-c3ccc(O)c(O)c3)oc2c1 (stereo unspecified) | 187 |
| O=C1C=CC(=O)C2CC3=C(CC4=C(C3)CC3C(=O)C=CC(=O)C3C4)CC12 (stereo unspecified) | 338 |
| CCCCC(C)CC(O)C=CC1C(O)CC(=O)C1CCCCC=CC(=O)O (stereo unspecified) | 97 |
| CC12CCC3C(C1CCC2=O)C1(CC2CC(=O)CCC23C)OCCO1 (stereo unspecified) | 207 |
| CC1(C)C(=O)OC2=C(CC3C4CC=C5CC(O)CCC5(C)C4CCC23C)C1c1ccccc1 (stereo unspecified) | 233 |
| CCC1C2=C(OC(=O)C1(C)C)c1ccc(OC)cc1CC2 (stereo unspecified) | 143 |
| O=C1OCCOC(=O)C2CCCCC2C(=O)OCCOC(=O)C2CCCCC12 (stereo unspecified) | 140 |
| O=S(=O)(NS(=O)(=O)C(F)(F)F)C(F)(F)F | 51.5 |
| O=S(=O)(O)CCCNC(CO)(CO)CO | 230 |
| CC(=O)C(=Cc1ccc(-c2cccc([N+](=O)[O-])c2)o1)C(C)=O | 154 |
| CC1(C)CC(=O)C(=NNc2ccccc2[N+](=O)[O-])C(=O)C1 | 140 |
| OC[C@H]1O[C@@H]2O[C@H]3[C@H](O)[C@@H](O)[C@@H](O[C@H]4[C@H](O)[C@@H](O)[C@@H](O[C@H]5[C@H](O)[C@@H](O)[C@@H](O[C@H]6[C@H](O)[C@@H](O)[C@@H](O[C@H]7[C@H](O)[C@@H](O)[C@@H](O[C@H]8[C@H](O)[C@@H](O)[C@@H](O[C@H]1[C@H](O)[C@H]2O)O[C@@H]8CO)O[C@@H]7CO)O[C@@H]6CO)O[C@@H]5CO)O[C@@H]4CO)O[C@@H]3CO | 290 |
| Oc1ccccc1/C=N/n1c(S)nnc1C(F)(F)F | 156 |
| CC1(C)OC(CP(c2ccccc2)c2ccccc2)C(CP(c2ccccc2)c2ccccc2)O1 (stereo unspecified) | 87 |
| CCOC(=O)c1c(SC)n[nH]c1N | 143 |
| Cc1c(CSC2OCC(O)C(O)C2O)c(C)c(CSC2OCC(O)C(O)C2O)c(C)c1CSC1OCC(O)C(O)C1O (stereo unspecified) | 209 |
| O=C(O)CCN1C(=O)COc2ccc(Cl)cc21 | 148 |
| Clc1ncnc2sc3c(c12)CCC3 | 105 |
| CCOC(=O)c1sc2sc(C#N)c(N)c2c1N | 262 |
| NC(N)=Nc1nc(CSCCC(N)=N[S+2](N)([O-])[O-])cs1 | 163 |

Reference: the Bradley open melting point set (2014)
